The values that follow come from patent US6972296B2, “Carboxylic acid derivatives that inhibit the binding of integrins to their receptors” (Encysive Pharmaceuticals Inc., priority 1999, dated 2005).

As a reminder, the IC50 is the concentration that gives 50% inhibition.

Each structure is given as a SMILES string.

This test addresses T1, α4β1 integrin (Homo sapiens, UniProt P05556+P13612).
T1 construct: endogenous in cells; host or cells: Ramos cells
Nature of the test: Adhesion of calcein-labeled Ramos cells to CS1 (fibronectin) peptide conjugated ovalbumin. It counts as cell-based. The conditions noted are these: Ramos cell adhesion to CS1 conjugated ovalbumin. Put shortly: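 Calcein AM-labelled Ramos cells (2.5×10^5/well) with compound, up to 100 μM, added to plates coated with CS1 peptide–ovalbumin (0.5 μg/ml) and blocked with 3% BSA. Binding buffer TBS pH 7.5 with 1 mM each MgCl2, CaCl2, MnCl2; 30 min, 37 °C. After washes, adherent cells lysed and read fluorometrically; […].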

Where [1] appears, read: Table 5, dose required to give 50% inhibition.
The mark [2] stands for this setting: Table 7, dose required to give 50% inhibition.

T1 sequence (P13612 34-1032): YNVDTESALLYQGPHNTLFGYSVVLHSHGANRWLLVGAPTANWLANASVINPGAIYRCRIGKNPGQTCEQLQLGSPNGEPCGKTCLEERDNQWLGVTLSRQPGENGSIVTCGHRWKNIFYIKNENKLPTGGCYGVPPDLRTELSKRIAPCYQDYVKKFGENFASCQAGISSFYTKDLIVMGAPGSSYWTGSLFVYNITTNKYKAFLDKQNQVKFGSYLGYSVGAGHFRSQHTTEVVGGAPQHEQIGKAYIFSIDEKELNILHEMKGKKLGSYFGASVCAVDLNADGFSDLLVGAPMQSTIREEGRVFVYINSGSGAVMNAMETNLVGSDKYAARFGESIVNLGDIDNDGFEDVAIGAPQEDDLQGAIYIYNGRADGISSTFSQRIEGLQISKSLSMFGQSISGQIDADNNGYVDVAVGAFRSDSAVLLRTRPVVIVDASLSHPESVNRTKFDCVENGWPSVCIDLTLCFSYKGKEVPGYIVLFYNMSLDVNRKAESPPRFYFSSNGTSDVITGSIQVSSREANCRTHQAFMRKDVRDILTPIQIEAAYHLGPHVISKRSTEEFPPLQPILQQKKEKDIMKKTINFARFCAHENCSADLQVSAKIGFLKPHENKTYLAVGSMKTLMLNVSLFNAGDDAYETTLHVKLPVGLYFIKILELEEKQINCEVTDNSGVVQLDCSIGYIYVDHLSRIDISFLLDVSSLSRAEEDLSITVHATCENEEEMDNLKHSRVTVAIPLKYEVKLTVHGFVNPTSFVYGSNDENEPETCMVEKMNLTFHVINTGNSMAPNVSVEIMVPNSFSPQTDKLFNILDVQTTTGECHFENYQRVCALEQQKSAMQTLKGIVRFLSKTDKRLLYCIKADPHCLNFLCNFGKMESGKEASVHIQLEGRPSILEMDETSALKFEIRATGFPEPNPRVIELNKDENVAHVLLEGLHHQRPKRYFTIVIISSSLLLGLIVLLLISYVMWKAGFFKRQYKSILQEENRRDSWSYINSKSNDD
T1 sequence (P05556 21-798): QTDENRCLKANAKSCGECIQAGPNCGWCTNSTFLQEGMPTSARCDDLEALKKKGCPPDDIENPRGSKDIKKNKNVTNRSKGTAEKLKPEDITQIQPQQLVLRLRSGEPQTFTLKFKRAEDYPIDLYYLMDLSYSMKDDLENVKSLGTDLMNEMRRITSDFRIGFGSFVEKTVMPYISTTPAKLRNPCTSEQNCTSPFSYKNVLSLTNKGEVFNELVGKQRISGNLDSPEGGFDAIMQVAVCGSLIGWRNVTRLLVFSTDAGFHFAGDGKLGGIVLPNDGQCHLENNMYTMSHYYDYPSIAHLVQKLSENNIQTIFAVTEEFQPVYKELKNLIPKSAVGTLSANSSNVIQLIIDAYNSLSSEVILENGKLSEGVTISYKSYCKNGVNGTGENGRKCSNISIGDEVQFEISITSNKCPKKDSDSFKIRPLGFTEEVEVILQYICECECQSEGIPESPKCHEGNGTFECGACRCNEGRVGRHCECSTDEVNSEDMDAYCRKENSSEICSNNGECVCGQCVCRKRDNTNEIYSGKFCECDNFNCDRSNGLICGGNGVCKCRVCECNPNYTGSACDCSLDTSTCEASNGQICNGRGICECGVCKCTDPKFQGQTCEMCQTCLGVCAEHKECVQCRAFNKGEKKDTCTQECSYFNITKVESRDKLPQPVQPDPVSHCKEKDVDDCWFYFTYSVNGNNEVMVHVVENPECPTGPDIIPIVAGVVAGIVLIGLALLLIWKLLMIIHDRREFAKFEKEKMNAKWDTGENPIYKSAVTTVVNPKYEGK

Take `O=C(O)C[C@H](NC(=O)Nc1c(O)ccn(Cc2ccccc2Cl)c1=O)c1cccc(OC(F)F)c1` [(3S)-3-[({[1-(2-chlorobenzyl)-4-hydroxy-2-oxo-1,2-dihydropyridin-3-yl]amino}carbonyl)amino]-3-[3-(difluoromethoxy)phenyl]propanoic acid]: under setting [1], the IC50 is 6 nM. Regarding `Cn1ccc2cc([C@H](CC(=O)O)NC(=O)Nc3c(O)c4c(n(Cc5ccccc5Cl)c3=O)CCC4)ccc21` [(3S)-3-[({[1-(2-chlorobenzyl)-4-hydroxy-2-oxo-2,5,6,7-tetrahydro-1H-cyclopenta[b]pyridin-3-yl]amino}carbonyl)amino]-3-(1-methyl-1H-indol-5-yl)propanoic acid], the IC50 under setting [2] was 4 nM.

Turning to `Cc1cc(C)cc([C@H](CC(=O)O)NC(=O)Nc2c(O)c3c(n(Cc4ccccc4Cl)c2=O)CCC3)c1` [(3S)-3-[({[1-(2-chlorobenzyl)-4-hydroxy-2-oxo-2,5,6,7-tetrahydro-1H-cyclopenta[b]pyridin-3-yl]amino}carbonyl)amino]-3-(3,5-dimethylphenyl)propanoic acid], under setting [2], the IC50 was 9 nM.

For the compound `CC(C)Oc1cccc([C@H](CC(=O)O)NC(=O)Nc2c(O)c3c(n(Cc4ccccc4Cl)c2=O)CCC3)c1` [(3S)-3-[({[1-(2-chlorobenzyl)-4-hydroxy-2-oxo-2,5,6,7-tetrahydro-1H-cyclopenta[b]pyridin-3-yl]amino}carbonyl)amino]-3-(3-isopropoxyphenyl)propanoic acid], the 50% inhibitory concentration (IC50) (Table 6, 30 minutes at 37° C.) is 3 nM.

On to `Cc1cccc([C@H](CC(=O)O)NC(=O)Nc2c(O)c3c(n(Cc4ccccc4Cl)c2=O)CCC3)c1` [(3S)-3-[({[1-(2-chlorobenzyl)-4-hydroxy-2-oxo-2,5,6,7-tetrahydro-1H-cyclopenta[b]pyridin-3-yl]amino}carbonyl)amino]-3-(3-methylphenyl)propanoic acid], for which the IC50 under setting [2] is 5 nM. Still for that read-out and setting: the same measure for `CC(C)Oc1cc([C@H](CC(=O)O)NC(=O)Nc2c(O)c3c(n(Cc4ccccc4Cl)c2=O)CCC3)ccc1Cl` [(3S)-3-[({[1-(2-chlorobenzyl)-4-hydroxy-2-oxo-2,5,6,7-tetrahydro-1H-cyclopenta[b]pyridin-3-yl]amino}carbonyl)amino]-3-(4-chloro-3-isopropoxyphenyl)propanoic acid]: 38 nM. For the compound `Cc1ccc([C@H](CC(=O)O)NC(=O)Nc2c(O)c3c(n(Cc4ccccc4Cl)c2=O)CCC3)cc1` [(3S)-3-[({[1-(2-chlorobenzyl)-4-hydroxy-2-oxo-2,5,6,7-tetrahydro-1H-cyclopenta[b]pyridin-3-yl]amino}carbonyl)amino]-3-(4-methylphenyl)propanoic acid], the IC50 under setting [1] is 3 nM.

In the case of `O=C(O)C[C@H](NC(=O)Nc1c(O)c2c(n(Cc3ccccc3Cl)c1=O)CCC2)c1cccc(OCC2CC2)c1` [(3S)-3-[({[1-(2-chlorobenzyl)-4-hydroxy-2-oxo-2,5,6,7-tetrahydro-1H-cyclopenta[b]pyridin-3-yl]amino}carbonyl)amino]-3-[3-(cyclopropylmethoxy)phenyl]propanoic acid], the IC50 under setting [2] is 9 nM. `CCCc1cn(Cc2ccccc2Cl)c(=O)c(NC(=O)N[C@@H](CC(=O)O)c2ccc(OCC)c(OCC)c2)c1O` [(3S)-3-[({[1-(2-chlorobenzyl)-4-hydroxy-2-oxo-5-propyl-1,2-dihydropyridin-3-yl]amino}carbonyl)amino]-3-(3,4-diethoxyphenyl)propanoic acid]: the IC50 under setting [1] was 5 nM. On the same count and under the same terms, the same measure for `CCCc1cn(Cc2ccccc2Cl)c(=O)c(NC(=O)N[C@@H](CC(=O)O)c2cccc(OCC)c2)c1O` [(3S)-3-[({[1-(2-chlorobenzyl)-4-hydroxy-2-oxo-5-propyl-1,2-dihydropyridin-3-yl]amino}carbonyl)amino]-3-(3-ethoxyphenyl)propanoic acid]: 3 nM; for `CCCc1cn(Cc2ccccc2Cl)c(=O)c(NC(=O)N[C@@H](CC(=O)O)c2ccc(C)cc2)c1O` [(3S)-3-[({[1-(2-chlorobenzyl)-4-hydroxy-2-oxo-5-propyl-1,2-dihydropyridin-3-yl]amino}carbonyl)amino]-3-(4-methylphenyl)propanoic acid]: 20 nM.

`CCOc1ccc([C@H](CC(=O)O)NC(=O)Nc2c(O)c(C)c(C)n(Cc3ccccc3Cl)c2=O)cc1OCC` [(3S)-3-[({[1-(2-chlorobenzyl)-4-hydroxy-5,6-dimethyl-2-oxo-1,2-dihydropyridin-3-yl]amino}carbonyl)amino]-3-(3,4-diethoxyphenyl)propanoic acid]: under setting [1], the 50% inhibitory concentration (IC50) was 3 nM. As for `Cc1ccc([C@H](CC(=O)O)NC(=O)Nc2c(O)c(C)c(C)n(Cc3ccccc3Cl)c2=O)cc1` [(3S)-3-[({[1-(2-chlorobenzyl)-4-hydroxy-5,6-dimethyl-2-oxo-1,2-dihydropyridin-3-yl]amino}carbonyl)amino]-3-(4-methylphenyl)propanoic acid], the IC50 under setting [1] was 6 nM. For the compound `CCOc1ccc([C@H](CC(=O)O)NC(=O)Nc2c(O)c(C)cn(Cc3ccccc3Cl)c2=O)cc1OCC` [(3S)-3-[({[1-(2-chlorobenzyl)-4-hydroxy-5-methyl-2-oxo-1,2-dihydropyridin-3-yl]amino}carbonyl)amino]-3-(3,4-diethoxyphenyl)propanoic acid], the IC50 under setting [1] is 0.6 nM. The same measure, in the same setting: the value for `CCOc1cccc([C@H](CC(=O)O)NC(=O)Nc2c(O)c(C)cn(Cc3ccccc3Cl)c2=O)c1` [(3S)-3-[({[1-(2-chlorobenzyl)-4-hydroxy-5-methyl-2-oxo-1,2-dihydropyridin-3-yl]amino}carbonyl)amino]-3-(3-ethoxyphenyl)propanoic acid] was 2 nM.

With `COc1ccc([C@H](CC(=O)O)NC(=O)Nc2c(O)c(C)cn(Cc3ccccc3Cl)c2=O)cc1` [(3S)-3-[({[1-(2-chlorobenzyl)-4-hydroxy-5-methyl-2-oxo-1,2-dihydropyridin-3-yl]amino}carbonyl)amino]-3-(4-methoxyphenyl)propanoic acid], the IC50 (Table 6, 30 minutes at 37° C.) was 4 nM. For the compound `Cc1ccc([C@H](CC(=O)O)NC(=O)Nc2c(O)c(C)cn(Cc3ccccc3Cl)c2=O)cc1` [(3S)-3-[({[1-(2-chlorobenzyl)-4-hydroxy-5-methyl-2-oxo-1,2-dihydropyridin-3-yl]amino}carbonyl)amino]-3-(4-methylphenyl)propanoic acid], the concentration for half-maximal inhibition (IC50) under setting [1] is 5 nM. For the compound `CCN(CC)c1cccc([C@H](CC(=O)O)NC(=O)Nc2c(O)c(C)cn(Cc3ccccc3Cl)c2=O)c1` [(3S)-3-[({[1-(2-chlorobenzyl)-4-hydroxy-5-methyl-2-oxo-1,2-dihydropyridin-3-yl]amino}carbonyl)amino]-3-[3-(diethylamino)phenyl]propanoic acid], the IC50 under setting [2] is 2 nM. With `CCc1cn(Cc2ccccc2Cl)c(=O)c(NC(=O)N[C@@H](CC(=O)O)c2ccc(C)cc2)c1O` [(3S)-3-[({[1-(2-chlorobenzyl)-5-ethyl-4-hydroxy-2-oxo-1,2-dihydropyridin-3-yl]amino}carbonyl)amino]-3-(4-methylphenyl)propanoic acid], under setting [1], the IC50 is 10 nM. Consider `Cc1ccc([C@H](CC(=O)O)NC(=O)Nc2c(O)ccn(Cc3ccccc3C#N)c2=O)cc1` [(3S)-3-[({[1-(2-cyanobenzyl)-4-hydroxy-2-oxo-1,2-dihydropyridin-3-yl]amino}carbonyl)amino]-3-(4-methylphenyl)propanoic acid], for which, under setting [1], the IC50 was 9 nM. Still for that read-out and setting: the same measure for `Cc1ccc([C@H](CC(=O)O)NC(=O)Nc2c(O)ccn(Cc3ccc(Cl)cc3)c2=O)cc1` [(3S)-3-[({[1-(4-chlorobenzyl)-4-hydroxy-2-oxo-1,2-dihydropyridin-3-yl]amino}carbonyl)amino]-3-(4-methylphenyl)propanoic acid]: 7 nM.
